Among the data in ChEMBL document CHEMBL2151027, “BACE Inhibitors: Potential Treatment of Alzheimer's Disease, Dementia, and Related Neurodegenerative Disorders (B): 3-Amino-4-fluoro-1H-isoindol Derivatives: Patent Highlight” (ACS Med Chem Lett, 2012) are IC50 values, retold here.

The target of experiment [1] is T1, Beta-secretase 1 (Homo sapiens, UniProt P56817). Briefly: Inhibition of BACE1 by secreted AAPbeta release assay.
Experiment [2] addresses T1, Beta-secretase 1. The experiment can be described thus: Inhibition of BACE1 by diluted TR-FRET assay. Background: In TR-FRET formats the signal depends on donor and acceptor labels being close together.

T1 sequence (P56817 whole entry): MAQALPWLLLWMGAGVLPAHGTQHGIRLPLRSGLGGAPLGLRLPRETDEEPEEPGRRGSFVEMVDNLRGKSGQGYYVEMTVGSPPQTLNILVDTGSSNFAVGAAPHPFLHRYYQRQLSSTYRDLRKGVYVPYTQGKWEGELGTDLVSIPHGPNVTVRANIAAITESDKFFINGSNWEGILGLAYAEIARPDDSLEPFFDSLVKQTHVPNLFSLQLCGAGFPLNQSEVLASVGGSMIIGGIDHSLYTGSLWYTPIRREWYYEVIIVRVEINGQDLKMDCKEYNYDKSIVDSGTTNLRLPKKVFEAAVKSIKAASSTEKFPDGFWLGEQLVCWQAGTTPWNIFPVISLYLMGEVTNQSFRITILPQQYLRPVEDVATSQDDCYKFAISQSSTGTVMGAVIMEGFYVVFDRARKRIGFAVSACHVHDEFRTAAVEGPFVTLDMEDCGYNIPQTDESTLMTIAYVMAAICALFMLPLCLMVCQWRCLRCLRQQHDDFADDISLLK

A word on the IC50: it is the concentration that gives 50% inhibition. High values mean weaker potency, low ones greater potency. Regarding `CCn1cc([C@]2(c3cccc(-c4cncc(C#N)c4)c3)N=C(N)c3c(F)cccc32)cc(C)c1=O`, the IC50 is 2 nM in experiment [1] and 8 nM in experiment [2].

In the case of `CC#Cc1cncc(-c2cccc([C@@]3(c4cc(C(F)F)c(=O)n(CC)c4)N=C(N)c4c(F)cccc43)c2)c1`, the IC50 was 4 nM in experiment [1] and 6 nM in experiment [2].

In turn, `CC#Cc1ccnc(-c2cccc([C@@]3(c4cc(C)c(=O)n(CC)c4)N=C(N)c4c(F)cccc43)c2)c1` registered a half-inhibitory concentration (IC50) in experiment [1] of 2 nM.
